Drawing on PubChem BioAssay (NCI), this text covers GI50 and TGI for 11 compounds.

Among the test systems are CCRF-CEM leukemia; OVCAR-8 ovarian; U251 CNS; OVCAR-3 ovarian; HT29 colon; K-562 leukemia; UACC-257 melanoma; SF-268 CNS; NCI-H460 lung; NCI-H522 lung.
What all share (assay): DTP human tumour cell line panel, 48 h

A word on the GI50: it is the concentration that inhibits growth by half. A word on the TGI: it is the concentration at which net growth stops.

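Dose response: 5 concentrations. Exposure: 48 h. Format: 96-well plates. Endpoint: linear interpolation; highest concentration if not reached. The concentration for 50% growth inhibition is given as GI50. The concentration for full growth arrest is given as TGI.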

Take `O=[N+]([O-])/C=C\c1ccc2c(c1)OCO2`: the GI50 with CCRF-CEM leukemia is 3.9 µM; with OVCAR-8 ovarian it was 2.86 µM; in the assay with U251 CNS, 1.95 µM; in the assay on OVCAR-3 ovarian, 4.1 µM; in the assay on HT29 colon, 2.07 µM; in the assay with K-562 leukemia, 3.16 µM. Besides, the results for the GI50 in the assay on UACC-257 melanoma, with SF-268 CNS and with NCI-H460 lung were 1.64 µM, 10.5 µM and 10.6 µM, respectively. The TGI in the assay with CCRF-CEM leukemia is 25 µM; in the assay on OVCAR-8 ovarian, 10.4 µM; in the assay with U251 CNS, 5.02 µM; in the assay with OVCAR-3 ovarian, 15.2 µM; in the assay with HT29 colon, 4.89 µM; in the assay on K-562 leukemia, more than 100 µM. Further, the concentration for total growth inhibition (TGI) is 3.77 µM in the assay on UACC-257 melanoma, 22.4 µM in the assay with SF-268 CNS and 27.5 µM in the assay on NCI-H460 lung.

Turning to `ClCCn1cnc2c(SCc3ccccc3)ncnc21`, the GI50 in the assay on CCRF-CEM leukemia was 0.889 µM; in the assay on OVCAR-8 ovarian, 1.18 µM; with U251 CNS it was 0.623 µM; in the assay with OVCAR-3 ovarian it was 7.45 µM; in the assay on HT29 colon it was 0.872 µM; in the assay on K-562 leukemia, 0.64 µM. Further, the GI50 was 14.1 µM in the assay on UACC-257 melanoma, 1.49 µM with SF-268 CNS and 0.356 µM in the assay with NCI-H460 lung. Moreover, the TGI in the assay on CCRF-CEM leukemia, in the assay with OVCAR-8 ovarian, with U251 CNS, in the assay on OVCAR-3 ovarian, with HT29 colon and in the assay with K-562 leukemia was more than 100 µM each time. In addition, the TGI with UACC-257 melanoma is more than 100 µM; in the assay on SF-268 CNS, more than 100 µM; in the assay with NCI-H460 lung it was 30.1 µM.

Consider `COC(=O)C12C3C4C1C1C2C3C41I` (stereo unspecified), for which the TGI in the assay on CCRF-CEM leukemia, in the assay with OVCAR-8 ovarian, in the assay with U251 CNS, in the assay with OVCAR-3 ovarian, with HT29 colon and in the assay with K-562 leukemia was more than 100 µM throughout. The TGI in the assay on UACC-257 melanoma, with SF-268 CNS and in the assay with NCI-H460 lung was more than 100 µM each time.

`CN(C)CN1C(=O)S/C(=C2\C(=O)N(CN(C)C)c3ccccc32)C1=O`: the TGI in the assay with OVCAR-8 ovarian, in the assay on U251 CNS, in the assay with OVCAR-3 ovarian, in the assay with NCI-H522 lung, in the assay with HT29 colon and in the assay with UACC-257 melanoma was more than 100 µM each time. Further, the TGI in the assay on SF-268 CNS and with NCI-H460 lung was more than 100 µM throughout.

As for `CC/C=C\C[C@H](O)C/C=C1/C(=O)C=C[C@@H]1C/C=C\CCCC(N)=O`, the GI50 in the assay with CCRF-CEM leukemia is 1.38 µM; with OVCAR-8 ovarian, 3.03 µM; in the assay with U251 CNS, 1.5 µM; in the assay on OVCAR-3 ovarian it was 1.26 µM; in the assay on NCI-H522 lung, 1.3 µM; in the assay on HT29 colon, 1.89 µM. For the same compound, the values for the GI50 in the assay with UACC-257 melanoma, in the assay with SF-268 CNS and in the assay on NCI-H460 lung were 1.97 µM, 2.96 µM and 2.27 µM, respectively. The TGI worked out at 8.07 µM in the assay on CCRF-CEM leukemia; 11.4 µM in the assay with OVCAR-8 ovarian; 4.12 µM in the assay on U251 CNS; 4.22 µM with OVCAR-3 ovarian; 2.67 µM in the assay with NCI-H522 lung; 3.7 µM in the assay on HT29 colon. Further, the values for the TGI with UACC-257 melanoma, with SF-268 CNS and in the assay on NCI-H460 lung were 5.3 µM, 11.7 µM and 6.97 µM, respectively.

With `Cn1c(=O)c2c(nc3n2CCC(=O)N3)n(C)c1=O`, the TGI in the assay on CCRF-CEM leukemia, with OVCAR-8 ovarian, in the assay with U251 CNS, in the assay on NCI-H522 lung, in the assay on HT29 colon and in the assay on K-562 leukemia was more than 100 µM in each case. Further, the TGI in the assay with UACC-257 melanoma, in the assay on SF-268 CNS and in the assay with NCI-H460 lung was more than 100 µM in each case.

In the case of `c1ccc2c(NCCCCCCCCNc3c4ccccc4nc4ccccc34)c3ccccc3nc2c1`, the TGI in the assay with CCRF-CEM leukemia was 2.15 µM; in the assay with OVCAR-8 ovarian, 2.45 µM; in the assay with U251 CNS, 2.09 µM; with OVCAR-3 ovarian it was 3.22 µM; in the assay with NCI-H522 lung, 1.88 µM; in the assay on HT29 colon, 1.57 µM. Moreover, the TGI with UACC-257 melanoma is 3.02 µM; in the assay with SF-268 CNS, 2.1 µM; in the assay on NCI-H460 lung it was 1.33 µM.

As to `NC(N)=N/N=C/c1c(-c2cc(Cl)sc2Cl)nc2n1CCS2`, the GI50 was 8.67 µM in the assay with CCRF-CEM leukemia; 10.3 µM with OVCAR-8 ovarian; 7.61 µM with U251 CNS; 8.81 µM in the assay on OVCAR-3 ovarian; 20.4 µM in the assay with NCI-H522 lung; 16 µM with K-562 leukemia. Besides, the GI50 was 9 µM in the assay with UACC-257 melanoma, 11.3 µM in the assay with SF-268 CNS and 25.5 µM with NCI-H460 lung. Besides, the TGI in the assay on CCRF-CEM leukemia is 19.6 µM; with OVCAR-8 ovarian, 22.1 µM; in the assay on U251 CNS, 14.4 µM; in the assay on OVCAR-3 ovarian it was 17.3 µM; with NCI-H522 lung it was more than 50 µM; in the assay on K-562 leukemia, 43.7 µM. The TGI in the assay with UACC-257 melanoma was 20.4 µM; in the assay with SF-268 CNS, 23.5 µM; with NCI-H460 lung, more than 50 µM.

As for `CCc1cccc(C)c1NC(=O)CC1Sc2ccccc2NC1=O` (stereo unspecified), the TGI was more than 100 µM with CCRF-CEM leukemia; more than 100 µM in the assay with OVCAR-8 ovarian; more than 100 µM with U251 CNS; more than 100 µM in the assay on OVCAR-3 ovarian; 61.5 µM with NCI-H522 lung; more than 100 µM in the assay on K-562 leukemia. The TGI in the assay with UACC-257 melanoma was 57.7 µM; in the assay on SF-268 CNS, more than 100 µM; in the assay with NCI-H460 lung it was more than 100 µM.

As to `Cc1ccc(N2C(=O)C(Cl)=C(Nc3cccc(O)c3)C2=O)cc1Cl`, the GI50 in the assay with CCRF-CEM leukemia is 18.5 µM; in the assay with OVCAR-8 ovarian, 16.8 µM; in the assay on U251 CNS, 15.7 µM; in the assay with OVCAR-3 ovarian, 15.3 µM; in the assay with NCI-H522 lung, 31.8 µM; with K-562 leukemia it was 18.9 µM. Moreover, the GI50 was 18.3 µM in the assay with SF-268 CNS and 11.6 µM in the assay with NCI-H460 lung. Besides, the TGI with CCRF-CEM leukemia is 46.8 µM; in the assay with OVCAR-8 ovarian it was 43.5 µM; with U251 CNS, 31 µM; in the assay on OVCAR-3 ovarian, 28.9 µM; in the assay with NCI-H522 lung, more than 100 µM; in the assay with K-562 leukemia it was 52.8 µM. Further, the TGI in the assay on SF-268 CNS was 37.2 µM; in the assay on NCI-H460 lung, 26.7 µM.

For `CC1(C)OC2C(=O)OC(COCc3ccccc3)C2O1` (stereo unspecified), the TGI with CCRF-CEM leukemia, in the assay with OVCAR-8 ovarian, in the assay on U251 CNS, in the assay with OVCAR-3 ovarian, with HT29 colon and in the assay with K-562 leukemia was more than 100 µM throughout. Also, the concentration for total growth inhibition (TGI) in the assay with UACC-257 melanoma, with SF-268 CNS and in the assay on NCI-H460 lung was more than 100 µM each time.
